# Results as given in patent US10988477B2 (Merck Patent GmbH, priority 2018, dated 2021).
# Tests used:
# GCN2 kinase = GCN2 kinase (Homo sapiens, UniProt Q9P2K8); test: GCN2 enzyme inhibition assay (Transcreener ADP2 fluorescence polarization); format: biochemical; settings: Enzyme activity for compounds of Formula IV; Ki(app), 280 μM ATP, 25° C.
# In short: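 Inhibition of 4 nM GCN2 was measured with compound up to 8 μM final, ATP 280 μM and (RS)7 peptide 200 μM over a 1 h, 25 °C reaction. ADP FP readout; IC50 and Ki(app) calculated from percent inhibition.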
# [1] = molecular target: intracellular GCN2 (phosphorylation of the GCN2 substrate eIF2α) (Homo sapiens, UniProt Q9P2K8); test: GCN2 cellular inhibition assay (AlphaScreen SureFire P-eIF2α Ser51, borrelidin-treated U2OS cells); format: cell-based; settings: compounds of Formula IV; biomarker assay, phosphorylated eIF2α Ser51 in borrelidin-treated U2OS cells
# Chain of intracellular GCN2 (phosphorylation of the GCN2 substrate eIF2α) (Q9P2K8 whole entry): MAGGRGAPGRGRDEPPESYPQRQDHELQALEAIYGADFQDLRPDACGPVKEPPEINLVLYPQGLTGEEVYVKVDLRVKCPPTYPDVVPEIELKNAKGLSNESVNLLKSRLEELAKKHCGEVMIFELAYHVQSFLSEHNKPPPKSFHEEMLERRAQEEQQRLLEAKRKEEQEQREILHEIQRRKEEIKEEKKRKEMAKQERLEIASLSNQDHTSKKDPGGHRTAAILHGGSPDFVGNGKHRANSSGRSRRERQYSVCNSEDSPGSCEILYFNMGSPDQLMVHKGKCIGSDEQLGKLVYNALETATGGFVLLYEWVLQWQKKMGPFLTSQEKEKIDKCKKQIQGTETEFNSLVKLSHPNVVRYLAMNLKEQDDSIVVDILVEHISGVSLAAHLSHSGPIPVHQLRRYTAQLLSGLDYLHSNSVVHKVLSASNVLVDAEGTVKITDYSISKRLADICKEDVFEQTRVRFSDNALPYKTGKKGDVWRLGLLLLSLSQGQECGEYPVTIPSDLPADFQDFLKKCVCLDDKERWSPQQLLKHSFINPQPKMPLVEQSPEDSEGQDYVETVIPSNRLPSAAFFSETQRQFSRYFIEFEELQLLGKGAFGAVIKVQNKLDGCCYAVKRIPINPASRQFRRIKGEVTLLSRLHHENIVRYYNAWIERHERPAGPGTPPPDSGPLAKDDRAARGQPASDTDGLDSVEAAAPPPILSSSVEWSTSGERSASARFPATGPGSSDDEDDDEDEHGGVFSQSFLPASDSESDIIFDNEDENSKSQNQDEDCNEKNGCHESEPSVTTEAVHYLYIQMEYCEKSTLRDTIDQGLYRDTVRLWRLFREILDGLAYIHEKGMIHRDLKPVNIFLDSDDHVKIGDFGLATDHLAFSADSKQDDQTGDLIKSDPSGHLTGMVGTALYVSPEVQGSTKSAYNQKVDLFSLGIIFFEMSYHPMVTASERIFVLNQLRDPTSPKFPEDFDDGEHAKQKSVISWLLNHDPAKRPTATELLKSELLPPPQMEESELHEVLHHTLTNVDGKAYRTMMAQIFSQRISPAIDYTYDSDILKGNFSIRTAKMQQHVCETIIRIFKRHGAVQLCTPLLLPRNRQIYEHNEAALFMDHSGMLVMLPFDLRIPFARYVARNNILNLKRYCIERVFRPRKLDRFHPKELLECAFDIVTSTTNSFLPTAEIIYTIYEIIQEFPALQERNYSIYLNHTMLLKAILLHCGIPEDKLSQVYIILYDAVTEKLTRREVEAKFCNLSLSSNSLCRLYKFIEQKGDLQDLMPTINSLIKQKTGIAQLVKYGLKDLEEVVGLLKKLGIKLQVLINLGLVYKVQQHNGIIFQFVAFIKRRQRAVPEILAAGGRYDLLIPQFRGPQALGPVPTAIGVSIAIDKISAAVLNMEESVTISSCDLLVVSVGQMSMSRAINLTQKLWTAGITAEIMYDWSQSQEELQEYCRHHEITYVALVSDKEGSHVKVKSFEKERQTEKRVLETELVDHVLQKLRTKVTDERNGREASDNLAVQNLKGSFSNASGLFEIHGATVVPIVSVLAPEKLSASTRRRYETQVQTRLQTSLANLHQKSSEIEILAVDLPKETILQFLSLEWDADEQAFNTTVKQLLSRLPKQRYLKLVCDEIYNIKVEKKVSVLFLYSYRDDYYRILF
# In short: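 Read-out: AlphaScreen SureFire phospho-eIF2α (Ser51) signal in U2OS lysates. Cells get 4-fold compound dilutions (top 40 μM final) plus 10 μM borrelidin, 1 h, 37 °C. Percent inhibition is relative to borrelidin-alone controls.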
# Chain of GCN2 kinase (Q9P2K8 whole entry): as above
Ki (GCN2 kinase) [µM],IC50 [1] [µM],Structure (SMILES)
0.01 to 0.1,0.5 to 5,"CC1C(C(N)=O)CCCN1c1ccnc(-c2cnc3cnc(C(F)F)cn23)n1 (stereo not shown) [IV-109, 1-(2-(6-(Difluoromethyl)imidazo[1,2-a]pyrazin-3-yl)pyrimidin-4-yl)-2-methylpiperidine-3-carboxamide]"
0.1 to 1,> 5,"OCC12CC1CN(c1ccnc(-c3cnc4cnc(C(F)F)cn34)n1)C2 (stereo not shown) [IV-111, (3-(2-(6-(Difluoromethyl)imidazo[1,2-a]pyrazin-3-yl)pyrimidin-4-yl)-3-azabicyclo[3.1.0]hexan-1-yl)methanol]"
0.1 to 1,> 5,"Cc1cc(C2CCCN(c3ccnc(-c4cnc5cnc(C(F)F)cn45)n3)C2)n[nH]1 (stereo not shown) [IV-112, 6-(Difluoromethyl)-3-(4-(3-(5-methyl-1H-pyrazol-3-yl)piperidin-1-yl)pyrimidin-2-yl)imidazo[1,2-a]pyrazine]"
0.1 to 1,> 5,"Cn1nc(C2CCCN(c3ccnc(-c4cnc5cnc(C(F)F)cn45)n3)C2)cc1O (stereo not shown) [IV-113, 3-(1-(2-(6-(Difluoromethyl)imidazo[1,2-a]pyrazin-3-yl)pyrimidin-4-yl)piperidin-3-yl)-1-methyl-1H-pyrazol-5-ol]"
0.1 to 1,> 5,"NS(=O)(=O)CC1CCCN(c2ccnc(-c3cnc4cnc(C(F)F)cn34)n2)C1 (stereo not shown) [IV-114, (1-(2-(6-(Difluoromethyl)imidazo[1,2-a]pyrazin-3-yl)pyrimidin-4-yl)piperidin-3-yl)methanesulfonamide]"
0.1 to 1,> 5,"FC(F)c1cn2c(-c3nccc(N4CCc5ccccc5C4)n3)cnc2cn1 [IV-115, 2-(2-(6-(Difluoromethyl)imidazo[1,2-a]pyrazin-3-yl)pyrimidin-4-yl)-1,2,3,4-tetrahydroisoquinoline]"
0.1 to 1,> 5,"OC1CCC2CN(c3ccnc(-c4cnc5cnc(C(F)F)cn45)n3)CC2C1 (stereo not shown) [IV-116, 2-(2-(6-(Difluoromethyl)imidazo[1,2-a]pyrazin-3-yl)pyrimidin-4-yl)octahydro-1H-isoindol-5-ol]"
0.1 to 1,> 5,"NC(=O)C1COCCN(c2ccnc(-c3cnc4cnc(C(F)F)cn34)n2)C1 (stereo not shown) [IV-117, 4-(2-(6-(Difluoromethyl)imidazo[1,2-a]pyrazin-3-yl)pyrimidin-4-yl)-1,4-oxazepane-6-carboxamide]"
0.1 to 1,> 5,"NC1CCCN(c2ccnc(-c3cnc4cnc(C(F)F)cn34)n2)CC1 (stereo not shown) [IV-118, 1-(2-(6-(Difluoromethyl)imidazo[1,2-a]pyrazin-3-yl)pyrimidin-4-yl)azepan-4-amine]"
0.1 to 1,> 5,"CC1CN(c2ccnc(-c3cnc4cnc(C(F)F)cn34)n2)CC(C)O1 (stereo not shown) [IV-119, 4-(2-(6-(Difluoromethyl)imidazo[1,2-a]pyrazin-3-yl)pyrimidin-4-yl)-2,6-dimethylmorpholine]"
0.1 to 1,> 5,"OC1CCCN(c2ccnc(-c3cnc4cnc(C(F)F)cn34)n2)C1 (stereo not shown) [IV-120, 1-(2-(6-(Difluoromethyl)imidazo[1,2-a]pyrazin-3-yl)pyrimidin-4-yl)piperidin-3-ol]"
0.1 to 1,> 5,"OCC1CCCN(c2ccnc(-c3cnc4cnc(C(F)F)cn34)n2)C1 (stereo not shown) [IV-121, (1-(2-(6-(Difluoromethyl)imidazo[1,2-a]pyrazin-3-yl)pyrimidin-4-yl)piperidin-3-yl)methanol]"
0.1 to 1,> 5,"C[C@@H]1CCC[C@H](C)N1c1ccnc(-c2cnc3cnc(C(F)F)cn23)n1 [IV-122, 6-(Difluoromethyl)-3-(4-((2S,6R)-2,6-dimethylpiperidin-1-yl)pyrimidin-2-yl)imidazo[1,2-a]pyrazine]"
0.1 to 1,> 5,"CN1CCN(c2ccnc(-c3cnc4cnc(C(F)F)cn34)n2)CC12CCNCC2 [IV-123, 4-(2-(6-(Difluoromethyl)imidazo[1,2-a]pyrazin-3-yl)pyrimidin-4-yl)-1-methyl-1,4,9-triazaspiro[5.5]undecane]"
0.1 to 1,> 5,CS(=O)(=O)NC1CCCN(c2ccnc(-c3cnc4cnc(C(F)F)cn34)n2)CC1 (stereo not shown) [IV-124]
0.1 to 1,> 5,"CN([C@H]1CCN(c2ccnc(-c3cnc4cnc(C(F)F)cn34)n2)C1)S(C)(=O)=O [IV-125, (S)—N-(1-(2-(6-(Difluoromethyl)imidazo[1,2-a]pyrazin-3-yl)pyrimidin-4-yl)pyrrolidin-3-yl)-N-methylmethanesulfonamide]"
0.1 to 1,> 5,"CS(=O)(=O)N1C2CCC1CN(c1ccnc(-c3cnc4cnc(C(F)F)cn34)n1)C2 [IV-126, 6-(Difluoromethyl)-3-(4-(8-(methylsulfonyl)-3,8-diazabicyclo[3.2.1]octan-3-yl)pyrimidin-2-yl)imidazo[1,2-a]pyrazine]"
0.1 to 1,> 5,"NC(=O)C1COCCN(c2ccnc(-c3cnc4cnc(C(F)F)cn34)n2)C1 (stereo not shown) [IV-128, 4-(2-(6-(Difluoromethyl)imidazo[1,2-a]pyrazin-3-yl)pyrimidin-4-yl)-1,4-oxazepane-6-carboxamide]"
0.1 to 1,> 5,"C[C@@H]1CCCN(c2ccnc(-c3cnc4cnc(C(F)F)cn34)n2)C1 [IV-129, (R)-6-(Difluoromethyl)-3-(4-(3-methylpiperidin-1-yl)pyrimidin-2-yl)imidazo[1,2-a]pyrazine]"
0.1 to 1,> 5,"FC(F)c1cn2c(-c3nccc(N4CCCC5CCCC54)n3)cnc2cn1 (stereo not shown) [IV-130, 6-(Difluoromethyl)-3-(4-(octahydro-1H-cyclopenta[b]pyridin-1-yl)pyrimidin-2-yl)imidazo[1,2-a]pyrazine]"
0.1 to 1,> 5,"CC(C)(C)OC(=O)N1CCC2CCN(c3ccnc(-c4cnc5cnc(C(F)F)cn45)n3)CC21 (stereo not shown) [IV-132, tert-Butyl 6-(2-(6-(difluoromethyl)imidazo[1,2-a]pyrazin-3-yl)pyrimidin-4-yl)octahydro-1H-pyrrolo[2,3-c]pyridine-1-carboxylate]"
0.1 to 1,> 5,"CC1CCCN(c2ccnc(-c3cnc4cnc(C(F)F)cn34)n2)C1C (stereo not shown) [IV-134, 6-(Difluoromethyl)-3-(4-(2,3-dimethylpiperidin-1-yl)pyrimidin-2-yl)imidazo[1,2-a]pyrazine]"
0.1 to 1,> 5,"FC(F)c1cn2c(-c3nccc(N4CCCC5CC54)n3)cnc2cn1 (stereo not shown) [IV-135, 3-(4-(2-Azabicyclo[4.1.0]heptan-2-yl)pyrimidin-2-yl)-6-(difluoromethyl)imidazo[1,2-a]pyrazine]"
0.1 to 1,> 5,"OC[C@H]1CCCCN1c1ccnc(-c2cnc3cnc(C(F)F)cn23)n1 [IV-136, (R)-(1-(2-(6-(Difluoromethyl)imidazo[1,2-a]pyrazin-3-yl)pyrimidin-4-yl)piperidin-2-yl)methanol]"
0.1 to 1,> 5,"C[C@H]1CCCN(c2ccnc(-c3cnc4cnc(C(F)F)cn34)n2)C1 [IV-137, (S)-6-(Difluoromethyl)-3-(4-(3-methylpiperidin-1-yl)pyrimidin-2-yl)imidazo[1,2-a]pyrazine]"
0.1 to 1,> 5,"OC[C@@H]1CCCN(c2ccnc(-c3cnc4cnc(C(F)F)cn34)n2)C1 [IV-138, (R)-(1-(2-(6-(Difluoromethyl)imidazo[1,2-a]pyrazin-3-yl)pyrimidin-4-yl)piperidin-3-yl)methanol]"
